According to US20230172867A1, “A METHOD FOR TREATING CANCER WITH AN ORAL DOSAGE FORM OF AN FGFR4 INHIBITOR” (Eisai R&D Management Co., Ltd., priority 2020, published 2023):
Read-outs that look alike come from different tables or passages of the source.

Test: Pharmacokinetic measurements of H3B-6527 capsules in patients (trial NCT02834780), plasma LC-MS/MS
Format: in vivo, human
Conditions: human, plasma, oral; for AUC: read-out: AUC, geometric mean (CV%); for Cmax: read-out: Cmax, geometric mean (CV%)
Source text: A description of the first in human clinical trial for H3B-6527 can be found at the ClinicalTrials.gov by searching for trial identifier NCT02834780. In summary, the trial included a study population having the following characteristics: Adult patients ≥18 years old with advanced HCC or ICC; Progression after at least one prior therapy; ECOG score of 0 or 1; Well compensated liver function; FGF19-positive (dose expansion phase only); Excluded if patients have significant active infections [except hepatitis B virus (HBV) and hepatitis C virus (HCV)], gastric or esophageal varices, or previous FGF19-FGFR4 targeted therapy.
Blood samples are collected at the planned time points from each patient and centrifuged. The plasma portion of each sample is then transferred to a K2EDTA tube, which is then shipped to a bioanalytical lab for concentration measurement using LC-MS/MS. The concentration data are then analyzed using Phoenix® WinNonlin software to obtain PK parameters. The obtained PK parameters are further summarized using analytical software.
Drug Administration and Dosage for Dose Escalation: H3B-6527 was administered orally QD or BID on a 21-day cycle. […] Patients in dose escalation phase were treated regardless of FGF19 status. Response determined by RECIST 1.1/modified RECIST every 6 weeks
Further collection and collation of the PK results of the trial of Example 2 at a later point in time are reflected in the following Table 5:
The results of further analysis of the PK data of the trial of Example 2 with the actual date and time of the dose administration and PK sampling after QC, an update from the results of a preliminary analysis with the nominal (i.e. planned) dosing/PK sampling date/time presented in Example 3, are reflected in the following Table 6. In this example the number of patients from which each PK parameter was calculated is shown, rather than the total number of patients receiving a particular dose and regimen as in Table 5.

[1] = 600 mg, 600 mg QD, fed, Day 8, Table 6, actual times after QC
[2] = 700 mg, 700 mg BID, fed, Day 1, Table 6, actual times after QC
[3] = 700 mg, 700 mg BID, fed, Day 8, Table 6, actual times after QC
[4] = 1000 mg, 1000 mg QD, fasted, Day 1, Table 6, actual times after QC
[5] = 1000 mg, 1000 mg QD, fasted, Day 8, Table 6, actual times after QC
[6] = 1000 mg, 1000 mg QD, fed, Day 1, Table 6, actual times after QC
[7] = 1000 mg, 1000 mg QD, fed, Day 8, Table 6, actual times after QC
[8] = 1400 mg, 1400 mg QD, fasted, Day 1, Table 6, actual times after QC
[9] = 1400 mg, 1400 mg QD, fasted, Day 8, Table 6, actual times after QC
[10] = 1400 mg, 1400 mg QD, fed, Day 1, Table 6, actual times after QC
[11] = 1400 mg, 1400 mg QD, fed, Day 8, Table 6, actual times after QC
[12] = 2000 mg, 2000 mg QD, fed, Day 1, Table 6, actual times after QC
[13] = 2000 mg, 2000 mg QD, fed, Day 8, Table 6, actual times after QC

## C=CC(=O)Nc1cc(N2CCN(CC)CC2)ccc1Nc1cc(N(C)C(=O)Nc2c(Cl)c(OC)cc(OC)c2Cl)ncn1 [H3B-6527, N-(2-((6-(3-(2,6-dichloro-3,5-dimethoxyphenyl)-1-methylureido)pyrimidin-4-yl)amino)-5-(4-ethylpiperazin-1-yl)phenyl)acrylamide]
600 mg, 600 mg QD, fed, Day 8, Table 5, nominal times, read-out: Tmax, median (min-max)
  Tmax: 4.52 h
[1]
  AUC: 501 ng·h/mL
  Cmax: 99.6 ng/mL
600 mg, 600 mg QD, fed, Day 8, Table 6, actual times after QC, read-out: Half-life, geometric mean (CV%) (converted)
  half-life: 5.88 h
600 mg, 600 mg QD, fed, Day 8, Table 6, actual times after QC, read-out: Tmax, median (min-max)
  Tmax: 4.52 h
700 mg, 700 mg BID, fed, Day 1, Table 5, nominal times
  Cmax: 163 ng/mL
700 mg, 700 mg BID, fed, Day 1, Table 5, nominal times, read-out: Half-life, geometric mean (CV%) (converted)
  half-life: 2.1 h
700 mg, 700 mg BID, fed, Day 1, Table 5, nominal times, read-out: Tmax, median (min-max)
  Tmax: 2.02 h
[2]
  AUC: 591 ng·h/mL
  Cmax: 163 ng/mL
700 mg, 700 mg BID, fed, Day 1, Table 6, actual times after QC, read-out: Half-life, geometric mean (CV%) (converted)
  half-life: 2.13 h
700 mg, 700 mg BID, fed, Day 1, Table 6, actual times after QC, read-out: Tmax, median (min-max)
  Tmax: 2.02 h
700 mg, 700 mg BID, fed, Day 8, Table 5, nominal times
  Cmax: 167 ng/mL
700 mg, 700 mg BID, fed, Day 8, Table 5, nominal times, read-out: Half-life, geometric mean (CV%) (converted)
  half-life: 2.2 h
700 mg, 700 mg BID, fed, Day 8, Table 5, nominal times, read-out: Tmax, median (min-max)
  Tmax: 4.12 h
[3]
  AUC: 639 ng·h/mL
  Cmax: 167 ng/mL
700 mg, 700 mg BID, fed, Day 8, Table 6, actual times after QC, read-out: Half-life, geometric mean (CV%) (converted)
  half-life: 2.18 h
700 mg, 700 mg BID, fed, Day 8, Table 6, actual times after QC, read-out: Tmax, median (min-max)
  Tmax: 4.12 h
1000 mg, 1000 mg QD, fasted, Day 1, Table 5, nominal times
  Cmax: 146 ng/mL
1000 mg, 1000 mg QD, fasted, Day 1, Table 5, nominal times, read-out: Half-life, geometric mean (CV%) (converted)
  half-life: 4.5 h
1000 mg, 1000 mg QD, fasted, Day 1, Table 5, nominal times, read-out: Tmax, median (min-max)
  Tmax: 2.01 h
[4]
  AUC: 854 ng·h/mL
  Cmax: 225 ng/mL
1000 mg, 1000 mg QD, fasted, Day 1, Table 6, actual times after QC, read-out: Half-life, geometric mean (CV%) (converted)
  half-life: 4.48 h
1000 mg, 1000 mg QD, fasted, Day 1, Table 6, actual times after QC, read-out: Tmax, median (min-max)
  Tmax: 2.02 h
1000 mg, 1000 mg QD, fasted, Day 8, Table 5, nominal times
  Cmax: 197 ng/mL
1000 mg, 1000 mg QD, fasted, Day 8, Table 5, nominal times, read-out: Half-life, geometric mean (CV%) (converted)
  half-life: 4.5 h
1000 mg, 1000 mg QD, fasted, Day 8, Table 5, nominal times, read-out: Tmax, median (min-max)
  Tmax: 2.02 h
[5]
  AUC: 839 ng·h/mL
  Cmax: 187 ng/mL
1000 mg, 1000 mg QD, fasted, Day 8, Table 6, actual times after QC, read-out: Half-life, geometric mean (CV%) (converted)
  half-life: 4.84 h
1000 mg, 1000 mg QD, fasted, Day 8, Table 6, actual times after QC, read-out: Tmax, median (min-max)
  Tmax: 2 h
1000 mg, 1000 mg QD, fed, Day 1, Table 5, nominal times
  Cmax: 188 ng/mL
1000 mg, 1000 mg QD, fed, Day 1, Table 5, nominal times, read-out: Half-life, geometric mean (CV%) (converted)
  half-life: 4 h
1000 mg, 1000 mg QD, fed, Day 1, Table 5, nominal times, read-out: Tmax, median (min-max)
  Tmax: 5.05 h
[6]
  AUC: 1120 ng·h/mL
  Cmax: 182 ng/mL
1000 mg, 1000 mg QD, fed, Day 1, Table 6, actual times after QC, read-out: Half-life, geometric mean (CV%) (converted)
  half-life: 3.94 h
1000 mg, 1000 mg QD, fed, Day 1, Table 6, actual times after QC, read-out: Tmax, median (min-max)
  Tmax: 6 h
1000 mg, 1000 mg QD, fed, Day 8, Table 5, nominal times
  Cmax: 199 ng/mL
1000 mg, 1000 mg QD, fed, Day 8, Table 5, nominal times, read-out: Half-life, geometric mean (CV%) (converted)
  half-life: 4.2 h
1000 mg, 1000 mg QD, fed, Day 8, Table 5, nominal times, read-out: Tmax, median (min-max)
  Tmax: 4.08 h
[7]
  AUC: 796 ng·h/mL
  Cmax: 177 ng/mL
1000 mg, 1000 mg QD, fed, Day 8, Table 6, actual times after QC, read-out: Half-life, geometric mean (CV%) (converted)
  half-life: 6.16 h
1000 mg, 1000 mg QD, fed, Day 8, Table 6, actual times after QC, read-out: Tmax, median (min-max)
  Tmax: 2 h
1000 mg, following administration of 1000 mg (fasted), read-out: mean terminal half-life
  half-life: 4 to 5 h
1400 mg, 1400 mg QD, fasted, Day 1, Table 5, nominal times
  Cmax: 136 ng/mL
1400 mg, 1400 mg QD, fasted, Day 1, Table 5, nominal times, read-out: Half-life, geometric mean (CV%) (converted)
  half-life: 5.3 h
1400 mg, 1400 mg QD, fasted, Day 1, Table 5, nominal times, read-out: Tmax, median (min-max)
  Tmax: 1 h
[8]
  AUC: 400 ng·h/mL
  Cmax: 136 ng/mL
1400 mg, 1400 mg QD, fasted, Day 1, Table 6, actual times after QC, read-out: Half-life, geometric mean (CV%) (converted)
  half-life: 6.13 h
1400 mg, 1400 mg QD, fasted, Day 1, Table 6, actual times after QC, read-out: Tmax, median (min-max)
  Tmax: 1 h
1400 mg, 1400 mg QD, fasted, Day 8, Table 5, nominal times
  Cmax: 362 ng/mL
1400 mg, 1400 mg QD, fasted, Day 8, Table 5, nominal times, read-out: Half-life, geometric mean (CV%) (converted)
  half-life: 4.9 h
1400 mg, 1400 mg QD, fasted, Day 8, Table 5, nominal times, read-out: Tmax, median (min-max)
  Tmax: 2.1 h
[9]
  AUC: 1260 ng·h/mL
  Cmax: 362 ng/mL
1400 mg, 1400 mg QD, fasted, Day 8, Table 6, actual times after QC, read-out: Half-life, geometric mean (CV%) (converted)
  half-life: 4.56 h
1400 mg, 1400 mg QD, fasted, Day 8, Table 6, actual times after QC, read-out: Tmax, median (min-max)
  Tmax: 2.1 h
1400 mg, 1400 mg QD, fed, Day 1, Table 5, nominal times
  Cmax: 904 ng/mL
1400 mg, 1400 mg QD, fed, Day 1, Table 5, nominal times, read-out: Half-life, geometric mean (CV%) (converted)
  half-life: 4.1 h
1400 mg, 1400 mg QD, fed, Day 1, Table 5, nominal times, read-out: Tmax, median (min-max)
  Tmax: 5 h
[10]
  AUC: 5670 ng·h/mL
  Cmax: 904 ng/mL
1400 mg, 1400 mg QD, fed, Day 1, Table 6, actual times after QC, read-out: Half-life, geometric mean (CV%) (converted)
  half-life: 4.13 h
1400 mg, 1400 mg QD, fed, Day 1, Table 6, actual times after QC, read-out: Tmax, median (min-max)
  Tmax: 5 h
1400 mg, 1400 mg QD, fed, Day 8, Table 5, nominal times
  Cmax: 827 ng/mL
1400 mg, 1400 mg QD, fed, Day 8, Table 5, nominal times, read-out: Half-life, geometric mean (CV%) (converted)
  half-life: 4.4 h
1400 mg, 1400 mg QD, fed, Day 8, Table 5, nominal times, read-out: Tmax, median (min-max)
  Tmax: 5.86 h
[11]
  AUC: 5450 ng·h/mL
  Cmax: 827 ng/mL
1400 mg, 1400 mg QD, fed, Day 8, Table 6, actual times after QC, read-out: Half-life, geometric mean (CV%) (converted)
  half-life: 4.75 h
1400 mg, 1400 mg QD, fed, Day 8, Table 6, actual times after QC, read-out: Tmax, median (min-max)
  Tmax: 5.86 h
2000 mg, 2000 mg QD, fed, Day 1, Table 5, nominal times
  Cmax: 525 ng/mL
2000 mg, 2000 mg QD, fed, Day 1, Table 5, nominal times, read-out: Half-life, geometric mean (CV%) (converted)
  half-life: 5.5 h
2000 mg, 2000 mg QD, fed, Day 1, Table 5, nominal times, read-out: Tmax, median (min-max)
  Tmax: 2 h
[12]
  AUC: 2950 ng·h/mL
  Cmax: 540 ng/mL
2000 mg, 2000 mg QD, fed, Day 1, Table 6, actual times after QC, read-out: Half-life, geometric mean (CV%) (converted)
  half-life: 4.14 h
2000 mg, 2000 mg QD, fed, Day 1, Table 6, actual times after QC, read-out: Tmax, median (min-max)
  Tmax: 2.1 h
2000 mg, 2000 mg QD, fed, Day 8, Table 5, nominal times
  Cmax: 451 ng/mL
2000 mg, 2000 mg QD, fed, Day 8, Table 5, nominal times, read-out: Half-life, geometric mean (CV%) (converted)
  half-life: 5.7 h
2000 mg, 2000 mg QD, fed, Day 8, Table 5, nominal times, read-out: Tmax, median (min-max)
  Tmax: 2.5 h
[13]
  AUC: 2580 ng·h/mL
  Cmax: 502 ng/mL
2000 mg, 2000 mg QD, fed, Day 8, Table 6, actual times after QC, read-out: Half-life, geometric mean (CV%) (converted)
  half-life: 4.98 h
2000 mg, 2000 mg QD, fed, Day 8, Table 6, actual times after QC, read-out: Tmax, median (min-max)
  Tmax: 4 h
fasted, read-out: median plasma tmax
  Tmax: 1 to 3 h
